Data on one compound can be found in article PMC5146859, “Phase 1/2 study of pacritinib, a next generation JAK2/FLT3 inhibitor, in myelofibrosis or other myeloid malignancies” (Journal of Hematology & Oncology, 2016).

The subject of data set [1] is patients with advanced myeloid malignancies. In words: Phase 1 dose escalation: dose-limiting toxicities and MTD. Type of data set: in vivo. The method, then:
Phase 1 was a 3 + 3 dose-escalation study. Three to six patients were enrolled at each dose level, depending upon observed dose-limiting toxicities (DLTs) in the cohort. Each patient participated in only one cohort. Oral pacritinib was administered to the first cohort at 100 mg once daily (QD) for 25 consecutive days in a 28-day cycle in cycle 1, with 3 days of rest for pharmacokinetic (PK) sampling, followed by continuous 28-day dosing for the remaining cycles. Subsequent cohorts received escalating pacritinib dose levels of 150, 200, 300, 400, 500, and 600 mg QD. All patients at each dose level were observed through the end of the first cycle before the next dose level could begin treatment. […]
The primary objective of phase 1 was to establish the MTD of pacritinib in patients with advanced myeloid malignancies, defined as the highest dose level at which no more than one out of six patients in the cohort experienced a DLT during cycle 1 (25 days) of therapy. […] Clinical benefit rate was assessed as an exploratory endpoint, defined as the proportion of patients who experienced a complete response, partial response, clinical improvement, or stable disease (SD) during the study.

In data set [2] the test system is patients with advanced myeloid malignancies (MF, AML). In words: Phase 1 clinical benefit rate (IWG criteria). It is filed as in vivo, human. Here is the method: At screening/baseline, patients underwent a medical history, physical examination, vital sign assessment, ECOG PS assessment, electrocardiogram, and assessment of hematologic parameters and blood chemistry. Hematology/blood chemistry, physical examinations, and vital sign assessments were performed throughout treatment. Toxicity was assessed using the National Cancer Institute Common Terminology Criteria for Adverse Events (NCIC-CTCAE), version 3.0, with relationship to treatment assigned by the investigator and were recorded from the first dose of pacritinib until 30 days after the last dose. Bone marrow biopsy and/or aspirate samples were drawn at baseline, on day 1 of cycle 4 and cycle 10, as clinically indicated, and at the termination visit. Disease response and progression were determined using the relevant International Working Group (IWG) criteria. The primary objective of phase 1 was to establish the MTD of pacritinib in patients with advanced myeloid malignancies, defined as the highest dose level at which no more than one out of six patients in the cohort experienced a DLT during cycle 1 ([…]) of therapy. […] Secondary objectives in phase 1 of the study included safety and PK analysis. Clinical benefit rate was assessed as an exploratory endpoint, defined as the proportion of patients who experienced a complete response, partial response, clinical improvement, or stable disease (SD) during the study.

With `C1=C/COCc2cc(ccc2OCCN2CCCC2)Nc2nccc(n2)-c2cccc(c2)COC/1` [pacritinib, 11-(2-pyrrolidin-1-yl-ethoxy)-14,19-dioxa-5,7,26-triaza-tetracyclo[19.3.1.1(2,6). 1(8,12)]heptacosa-1(25),2(26),3,5,8,10,12(27),16,21,23-decaene], the “Recommended phase 2 dose” value in data set [1] (human, in vivo) turned out to be 400 mg QD. In addition, the “Maximum tolerated dose (MTD)” value in data set [1] (phase 1, oral) worked out at 500 mg QD. In data set [2] (phase 1), the “Dose–response correlation of clinical benefit” value is given as “No clear dose–response correlation was observed”. Also, in data set [2] (phase 1, n = 43), the “Overall clinical benefit rate” value was 86.0%, the “Patients achieving clinical improvement” value is listed as 13 patients and the “Patients having stable disease” value was determined as 24 patients. In data set [2] (phase 1, patients with AML (3/7)), this compound gave a Clinical benefit rate of 42.9%. Also, in data set [2] (phase 1, patients with MF (34/36)), the Clinical benefit rate amounted to 94.4%.
